# Source: patent US11230524B2, “Myocyte enhancer factor 2 (MEF2) modulators” (STANDARD LLC, priority 2017, dated 2022)
# Target: MEF2D/HDAC4 protein-protein interactions (Homo sapiens (Human), UniProt Q14814)
# Assay: Mammalian two-hybrid assay, inhibition of MEF2D and HDAC4 protein interactions (luciferase reporter in HeLa cells)
# Format: cell-based
# Settings: HeLa cells co-transfected with GAL4-MEF2D, HDAC4-VP16 and Gal4Luc; overnight treatment; luciferase normalized to Renilla
# From the text: Detection of MEF2D and HDAC4 interactions. In this mammalian two-hybrid assay, HDAC4 and MEF2D proteins were used. […] Human epithelial carcinoma cells (HeLa) were co-transfected with the two DNA constructs (GAL4-MEF2D and HDAC4-VP16) and a reporter plasmid (Gal4Luc). […] MEF2D and HDAC4 protein interactions were detected as a result of the GAL4-MEF2D and HDAC4-VP16 protein complex binding a DNA promoter on the reporter plasmid (Gal4Luc) and driving cellular expression of a luciferase gene. The measured luciferase protein signal was proportional to the amount of MEF2D and HDAC4 protein interactions occurring with the cell.
# The HDAC4 fragment lacked the catalytic domain so that the deacetylase activity was excluded from the assay.
# Detection of inhibition of MEF2D and HDAC4 interactions. Next, the assay was used to test whether the compounds could disrupt the interactions between MEF2D and HDAC4. After co-expressing the GAL4-MEF2D and HDAC4-VP16 DNA constructs and reporter plasmid, the HeLa cells were treated with a test compound (10 μM) overnight. Cells transfected with the positive control GAL4VP16 fusion construct and reporter plasmid were also treated with the test compound (10 μM) overnight. As another control, DMSO was added (but kept below 0.2% V/V) to cells transfected with the positive GAL4VP16 fusion construct or the GAL4-MEF2D and HDAC4-VP16 DNA constructs. A luciferase assay was performed as described above according to the manufacturer's protocol (Promega). The luciferase response was normalized against the Renilla Luciferase as an internal control.
# The relative activity and IC50 calculations. […] The relative activity, I, was the ratio of former to later, i.e. X/Y, expressed in percentile. […] The IC50 was the concentration of the compounds when X/Y equals 50.
# Sequence of MEF2D/HDAC4 protein-protein interactions (Q14814 whole entry, species assumed): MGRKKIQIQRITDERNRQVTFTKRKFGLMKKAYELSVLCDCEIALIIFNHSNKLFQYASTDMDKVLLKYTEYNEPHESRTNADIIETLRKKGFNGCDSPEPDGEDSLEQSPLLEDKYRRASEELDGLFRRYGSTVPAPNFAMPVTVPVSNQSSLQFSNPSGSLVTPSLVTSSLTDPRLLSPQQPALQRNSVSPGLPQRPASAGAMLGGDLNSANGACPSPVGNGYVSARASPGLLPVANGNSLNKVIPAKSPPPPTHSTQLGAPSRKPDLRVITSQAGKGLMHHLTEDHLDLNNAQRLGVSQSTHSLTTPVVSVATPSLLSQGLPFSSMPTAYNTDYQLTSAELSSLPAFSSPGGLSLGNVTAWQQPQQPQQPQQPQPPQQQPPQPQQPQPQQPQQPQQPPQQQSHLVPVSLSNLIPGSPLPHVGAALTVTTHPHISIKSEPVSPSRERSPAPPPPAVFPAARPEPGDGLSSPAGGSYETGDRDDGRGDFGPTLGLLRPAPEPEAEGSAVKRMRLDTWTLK
row,SMILES,IC50 [nM]
1,Nc1ccccc1NC(=O)/C=C/c1cccc(CNc2cccc(Br)c2)c1 [ST2],5940
2,COc1cccc(NCc2cccc(/C=C/C(=O)Nc3ccccc3N)c2)c1 [ST3],4870
3,CC(C)Oc1cccc(NCc2cccc(/C=C/C(=O)Nc3ccccc3N)c2)c1 [ST5],191000
4,Nc1ccccc1NC(=O)/C=C/c1cccc(CNc2cccc(N3CCCCC3)c2)c1 [ST6],2460
5,Nc1ccccc1NC(=O)/C=C/c1cccc(CNc2cccc(N3CCOCC3)c2)c1 [ST8],2400
6,CCN(CC)c1cccc(NCc2cccc(/C=C/C(=O)Nc3ccccc3N)c2)c1 [ST9],3530
7,Nc1ccccc1NC(=O)/C=C/c1cccc(CNc2cccc(N3CCCC3)c2)c1 [ST10],2510
8,Nc1ccccc1NC(=O)/C=C/c1ccc(F)c(CNc2ccccc2)c1 [ST11],18000
9,COc1cccc(NCc2ccc(F)c(/C=C/C(=O)Nc3ccccc3N)c2)c1 [ST12],3360
10,O=C(/C=C/c1cccc(CNc2ccccc2)c1)NO [ST15],920
11,O=C(/C=C/c1cccc(CNc2cccc(OC3CC3)c2)c1)NO [ST16],380
12,O=C(/C=C/c1cccc(CNc2ccc(F)cc2)c1)NO [ST17],990
13,O=C(/C=C/c1cccc(CNc2cccc(F)c2)c1)NO [ST18],1030
14,COc1cccc(NCc2cccc(/C=C/C(=O)NO)c2)c1 [ST19],320
15,CSc1cccc(NCc2cccc(/C=C/C(=O)NO)c2)c1 [ST20],320
16,CCOc1cccc(NCc2cccc(/C=C/C(=O)NO)c2)c1 [ST21],350
17,CCc1cccc(NCc2cccc(/C=C/C(=O)NO)c2)c1 [ST22],540
18,N#Cc1cccc(NCc2cccc(/C=C/C(=O)NO)c2)c1 [ST23],420
19,O=C(/C=C/c1cccc(CNc2ccc(F)c(F)c2)c1)NO [ST24],1020
20,O=C(/C=C/c1cccc(CNc2ccc(F)cc2F)c1)NO [ST25],950
21,O=C(/C=C/c1cccc(CNc2ccc(Cl)cc2)c1)NO [ST26],790
22,CC(C)Oc1cccc(NCc2cccc(/C=C/C(=O)NO)c2)c1 [ST27],350
23,O=C(/C=C/c1cccc(CNc2cccc(OC3CCC3)c2)c1)NO [ST28],670
24,O=C(/C=C/c1cccc(CNc2cccc(OC3CCCC3)c2)c1)NO [ST29],1180
25,CN(C)c1ccc(/C=C2C=C(/C=C/C(=O)NO)CCC/2)cc1 [ST30],> 20000
26,O=C(/C=C/c1cccc(CNc2cccc(OC3COC3)c2)c1)NO [ST31],560
27,O=C(/C=C/c1cccc(CNc2cccc(N3CCOCC3)c2)c1)NO [ST32],250
28,CN(C)c1cccc(NCc2cccc(/C=C/C(=O)NO)c2)c1 [ST33],370

row,SMILES,IC50 [nM]
1,CCCCc1cccc(NCc2cccc(/C=C/C(=O)NO)c2)c1 [ST34],2030
2,CCOc1cccc(NCC2C=C(/C=C/C(=O)NO)CCC2)c1 (stereo not drawn) [ST35],4720
3,COc1ccc(NCC2C=C(/C=C/C(=O)NO)CCC2)cc1 (stereo not drawn) [ST36],1880
4,O=C(/C=C/c1cccc(CNc2cccc(N3CCCC3)c2)c1)NO [ST37],590
5,CCN(C)c1cccc(NCc2cccc(/C=C/C(=O)NO)c2)c1 [ST38],260
6,O=C(/C=C/c1cccc(CNc2cccc(N3CCCCC3)c2)c1)NO [ST39],310
7,O=C(/C=C/c1cccc(CNc2cccc(N3CCNCC3)c2)c1)NO [ST40],260
8,CCN(CC)c1cccc(NCc2cccc(/C=C/C(=O)NO)c2)c1 [ST41],1160
9,CN(C)Cc1ccc(NCc2cccc(/C=C/C(=O)NO)c2)cc1 [ST42],70
10,O=C(/C=C/c1cccc(CNc2cccc(C3COC3)c2)c1)NO [ST43],270
11,COc1cccc(NCc2cc(F)cc(/C=C/C(=O)NO)c2)c1 [ST44],380
12,O=C(/C=C/c1cccc(CNc2cccc(OCC(F)F)c2)c1)NO [ST45],560
13,O=C(/C=C/c1cccc(CNc2cccc(OCC(F)(F)F)c2)c1)NO [ST46],670
14,Nc1ccccc1NC(=O)/C=C/c1cccc(CNc2nccc(-c3cccnc3)n2)c1 [ST47],1490
15,Nc1ccccc1NC(=O)/C=C/c1cccc(Nc2nccc(-c3cccnc3)n2)c1 [ST48],> 20000
16,Nc1ccccc1NC(=O)/C=C/c1cccc(CNc2nc3ccccc3s2)c1 [ST50],2550
17,COc1ccc(-c2csc(NCc3cccc(/C=C/C(=O)Nc4ccccc4N)c3)n2)cc1 [ST51],> 20000
18,Nc1ccccc1NC(=O)/C=C/c1cccc(CNc2nc(-c3ccc(F)cc3)cs2)c1 [ST52],> 20000
19,Nc1ccccc1NC(=O)/C=C/c1cccc(CNc2cccc3cccnc23)c1 [ST56],5220
20,Nc1ccccc1NC(=O)/C=C/c1cccc(C(=O)Nc2nc(-c3ccncc3)cs2)c1 [ST57],> 20000
21,Nc1ccccc1NC(=O)/C=C/c1cccc(C(C(=O)Nc2ccccc2)C(=O)Nc2ccccc2)c1 [ST58],3010
22,Cc1cnc(NCc2cccc(/C=C/C(=O)Nc3ccccc3N)c2)s1 [ST59],3130
23,Cc1nnc(NCc2cccc(/C=C/C(=O)Nc3ccccc3N)c2)s1 [ST60],5040
24,Nc1ccccc1NC(=O)/C=C/c1cccc(CNc2nnc(C(F)(F)F)s2)c1 [ST61],8030
25,Nc1ccccc1NC(=O)/C=C/c1cccc(CNc2nc(C(F)(F)F)cs2)c1 [ST62],3040
26,Cc1nnc(NCc2cccc(/C=C/C(=O)Nc3ccccc3N)c2)o1 [ST65],5370
27,Cc1coc(NCc2cccc(/C=C/C(=O)Nc3ccccc3N)c2)n1 [ST67],3060

# Continued, values first:
row,IC50 [nM],SMILES
1,2100,Nc1ccccc1NC(=O)/C=C/c1cccc(NC(=O)OCc2cccnc2)c1 [ST68]
2,980,O=C(/C=C/c1cccc(C(=O)Nc2nc(-c3ccncc3)cs2)c1)NO [ST69]
3,140,O=C(/C=C/c1cccc(CNc2nc(-c3ccncc3)cs2)c1)NO [ST70]
4,270,Cc1[nH]c2ccccc2c1CCNc1cccc(/C=C/C(=O)NO)c1 [ST71]
5,1550,O=C(/C=C/c1cccc(CNc2cccnc2)c1)NO [ST72]
6,1150,Cc1nnc(NCc2cccc(/C=C/C(=O)NO)c2)s1 [ST73]
7,320,O=C(/C=C/c1cccc(CNc2nnc(C(F)(F)F)s2)c1)NO [ST74]
8,410,O=C(/C=C/c1cccc(CNc2nc(C(F)(F)F)cs2)c1)NO [ST75]
9,> 10000,Cc1nnc(NCc2cccc(/C=C/C(=O)NO)c2)o1 [ST76]
10,640,Cc1coc(NCc2cccc(/C=C/C(=O)NO)c2)n1 [ST77]
11,> 20000,Cc1csc(NCc2cccc(/C=C/C(=O)NO)c2)n1 [ST78]
12,280,O=C(/C=C/c1cccc(CNc2nc(C(F)(F)F)co2)c1)NO [ST79]
13,560,CCOC(=O)NC(CCCCC(=O)Nc1ccccc1N)C(=O)Nc1cccc(Br)c1 (stereo not drawn) [ST80]
14,850,CCOC(=O)NC(CCCCC(=O)Nc1ccccc1N)C(=O)Nc1cccc(C(C)(F)F)c1 (stereo not drawn) [ST81]
15,500,CCOC(=O)NC(CCCCC(=O)Nc1ccccc1N)C(=O)Nc1cccc(SC)c1 (stereo not drawn) [ST82]
16,930,CCOC(=O)NC(CCCCC(=O)Nc1ccccc1N)C(=O)Nc1cccc(SC(F)(F)F)c1 (stereo not drawn) [ST84]

row,IC50 [nM],SMILES
1,> 20000,CCOC(=O)NC(CCCCC(=O)Nc1cccc(Br)c1)C(=O)Nc1ccccc1N (stereo not drawn) [ST86]
2,3060,Nc1ccccc1NC(=O)CCCCC(N)C(=O)Nc1cccc(Br)c1 (stereo not drawn) [ST87]
3,7320,CCCCNC(CCCCC(=O)Nc1ccccc1N)C(=O)Nc1cccc(Br)c1 (stereo not drawn) [ST88]
4,460,CCCC(=O)NC(CCCCC(=O)Nc1ccccc1N)C(=O)Nc1cccc(Br)c1 (stereo not drawn) [ST90]
5,1460,CCOC(=O)NC(CCCCC(=O)Nc1ccccc1N)C(=O)Nc1ccccc1 (stereo not drawn) [ST91]
6,1040,CCOC(=O)N[C@H](CCCCC(=O)Nc1ccccc1N)C(=O)Nc1cccc(Br)c1 [ST95]
7,1370,COC(=O)N[C@H](CCCCC(=O)Nc1ccccc1N)C(=O)Nc1cccc(Br)c1 [ST96]
8,450,CC(C)OC(=O)N[C@@H](CCCCC(=O)Nc1ccccc1N)C(=O)Nc1cccc(Br)c1 [ST97]
9,320,Nc1ccccc1NC(=O)CCCC[C@H](NC(=O)CC1CC1)C(=O)Nc1cccc(Br)c1 [ST98]
10,590,Nc1ccccc1NC(=O)CCCC[C@H](NC(=O)OCC1CC1)C(=O)Nc1cccc(Br)c1 [ST99]
11,210,"CCOC(=O)N[C@@H](CCCCC(=O)Nc1ccccc1N)C(=O)Nc1cccc(OCC)c1 [ST100, (S)-ethyl (7-((2-aminophenyl)amino)-1-((3-ethoxyphenyl)amino)-1,7-dioxoheptan-2-yl)carbamate]"
12,350,CC(C)CC(=O)N[C@@H](CCCCC(=O)Nc1ccccc1N)C(=O)Nc1cccc(Br)c1 [ST101]
13,350,COC(=O)N[C@@H](CCCCC(=O)Nc1ccccc1N)C(=O)Nc1cccc(Br)c1 [ST103]
14,1480,CCN1CCN(C(CCCCC(=O)Nc2ccccc2N)C(=O)Nc2cccc(Br)c2)C1=O (stereo not drawn) [ST105]
15,1110,CC(C)(C)OC(=O)N[C@@H](CCCCC(=O)Nc1ccccc1N)C(=O)Nc1cccc(Br)c1 [ST106]
16,440,CCOC(=O)N[C@@H](CCCCC(=O)NO)C(=O)Nc1cccc(Br)c1 [ST107]
